Laboratory results taken from patent US12384765B2, “Catecholamine prodrugs for use in the treatment of Parkinson's Disease” (H. Lundbeck A/S, priority 2019, dated 2025).
“Also recorded” adds a separate entry of the source.

Tests used:
[1] = Conversion of compounds in human plasma; format: in vitro ADME
Experimental: Frozen human plasma was thawed and then centrifuged at 3200×g for 5 min to remove debris. The pH value of the supernatant was then measured and adjusted to 7.4±0.1 by adding 1% phosphoric acid or 1 N sodium hydroxide. 2 μL of dosing solution (50 μM for test compounds and 100 μM for positive control (propantheline bromide)) was mixed with 98 μL of blank plasma to achieve 1 μM test compound and 2 μM positive control of final concentration. The mixture was incubated, and samples were withdrawn from the incubations at the pre-determined time points of 0, 0.5, 1, 2, 4 and 6 hr (in duplicate) at 37° C. in water bath. At each corresponding time point 10 μL inhibitor and 20 μL ascorbic acid and 2 μL formic acid (20%) are added, and then added 400 μL of “stop solution” (200 ng/mL tolbutamide plus 200 ng/mL labetalol in 50% ACN/MeOH) to precipitate protein. The substance was mixed thoroughly and thereafter Centrifugated at 4,000 rpm for 20 minutes. Then an aliquot of supernatant (50 μL) was transferred from each well to a sample plate and mixed with 100 μL ultrapure water. The plate was shaked at 800 rpm for about 10 minutes before submitting to LC-MS/MS analysis.
(§1) Mass spectrometer (LC-MS/MS) Shimadzu LC 20-AD Shimadzu UHPLC API 4000. Analytical column ACQUITY UPLC® BEH Phenyl 1.7 μm 2.1×50 mm. Mobile phase A: 0.1% Formic Acid in Water. Mobile phase B: 0.1% Formic Acid in Acetonitrile. […] Flow rate 0.7 mL/min.

human hepatocytes [2] = test: Conversion of compounds in human hepatocytes; format: in vitro ADME; conditions: 1 μM compound, 37° C.; nd: not detected
Experimental: Incubations were conducted in 96-well plates at 1 μM compound concentration in duplicate. The hepatocyte cell concentration was 0.5×10^6 cells/mL used for final incubation at 37° C. in an incubator of 5% CO2 95% relative humidity. The medium control samples were included at 0 and 60 minutes in the absence of cells. The total organic concentration was 1% (DMSO 0.1%) in the final incubation. The controls, (7-ethoxycoumarin and 7-hydroxycoumarin) was incubated parallel at 3 μM. 2 μL of dosing solution (50 μM for test compounds and 100 μM for positive control) was mixed with 98 μL of 100 mM PBS to achieve 1 μM test compound and 2 μM positive control of final concentration. The mixture was incubated, and samples were withdrawn from the incubations at pre-determined time points of 0, 0.5, 1, 2, 4 and 6 hr (in duplicate) at 37° C. in water bath. To each sample, 10 μL inhibitor and 20 μL ascorbic acid and 2 μL formic acid (20%) were added followed by 400 μL of stop solution (200 ng/mL tolbutamide plus 200 ng/mL labetalol in 50% ACN/MeOH). The substance was mixed thoroughly and thereafter centrifuged at 4,000 rpm for 20 minutes. An aliquot of supernatant (50 μL) from each well were transferred to a sample plate and mixed with 100 μL ultrapure water. The plate was shaked at 800 rpm for about 10 minutes before submitting to LC-MS/MS analysis.
as §1

[3] = PK experiments in rats, plasma compound (I) after oral dosing; format: in vivo, Han Wistar rats; conditions: for plasma concentrations of compound (I) after oral dosing (in words): oral dosing to Wistar rats
Experimental: Plasma was placed on water-ice following collection. Final storage at approximately −70° C.
Mobile phase B: Acetonitrile. […] Flow rate 0.5 mL/min.
The rats had unrestricted access to the diet.
Mobile phase B: Acetonitrile+0.2% formic acid. […] Flow rate 0.3 mL/min.
The rats received a standard laboratory diet Teklad 2014C. The rats had unrestricted access to the diet.

human 5-HT2B receptor [4] = target: T1, human 5-HT2B receptor (Homo sapiens (Human), UniProt P41595); test: 5-HT2B binding assay; conditions: [125I](±)DOI, read-out: 5-HT2B binding affinity (% inhibition of control, specific binding)
T1 sequence (P41595 whole entry): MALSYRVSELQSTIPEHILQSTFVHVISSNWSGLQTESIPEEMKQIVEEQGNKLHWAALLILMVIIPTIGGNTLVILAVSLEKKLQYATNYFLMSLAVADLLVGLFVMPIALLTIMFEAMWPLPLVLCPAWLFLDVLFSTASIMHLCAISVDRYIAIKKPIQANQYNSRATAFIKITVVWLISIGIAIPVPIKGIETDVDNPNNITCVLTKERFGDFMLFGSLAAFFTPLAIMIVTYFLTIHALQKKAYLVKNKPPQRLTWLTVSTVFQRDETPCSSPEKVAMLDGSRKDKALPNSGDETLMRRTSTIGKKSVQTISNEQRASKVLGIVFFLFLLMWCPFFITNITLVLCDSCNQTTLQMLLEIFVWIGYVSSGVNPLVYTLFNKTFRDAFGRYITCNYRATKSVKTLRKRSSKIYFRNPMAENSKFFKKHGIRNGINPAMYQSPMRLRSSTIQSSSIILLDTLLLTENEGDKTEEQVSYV
Experimental: Evaluation of the affinity of said compounds for the human 5-HT2B receptor was determined in a radioligand binding assay at Eurofins/Cerep (France). Membrane homogenates prepared from CHO cells expressing the human 5HT2B receptor were incubated for 60 min at room temperature with 0.2 nM [125I](±)DOI (1-(4-iodo-2,5-dimethoxyphenyl)propan-2-amine) in the absence or presence of the test compound in a buffer containing 50 mM Tris-HCl (pH 7.4), 5 mM MgCl2, 10 μM pargyline and 0.1% ascorbic acid. Nonspecific binding is determined in the presence of 1 μM (±)DOI. Following incubation, the samples were filtered rapidly under vacuum through glass fiber filters (GF/B, Packard) presoaked with 0.3% polyethyleneimine (PEI) and rinsed several times with ice-cold 50 mM Tris-HCl using a 96-sample cell harvester (Unifilter, Packard). The filters were dried and counted for radioactivity in a scintillation counter (Topcount, Packard) using a scintillation cocktail (Microscint 0, Packard). The results are expressed as a percent inhibition of the control radioligand specific binding. The standard reference compound was (±)DOI, which was tested in each experiment at several concentrations to obtain a competition curve from which its IC50 is calculated.

human 5-HT2B receptor [5] = target: T1, human 5-HT2B receptor; test: 5-HT2B agonist activity assay (IP1 production, HTRF); format: cell-based
Experimental: Evaluation of the agonist activity of compounds (I), (Ia), (Ib), (Ic), (Ia-iab), compound (2), compound (9), compound (15), compound (27), A2, A3, and A7 at the human 5-HT2B receptor was performed by Eurofins/Cerep (France) measuring the compound effects on inositol monophosphate (IP1) production using the HTRF detection method. Briefly, the human 5-HT2B receptor was expressed in transfected CHO cells. The cells were suspended in a buffer containing 10 mM Hepes/NaOH (pH 7.4), 4.2 mM KCl, 146 mM NaCl, 1 mM CaCl2, 0.5 mM MgCl2, 5.5 mM glucose and 50 mM LiCl, then distributed in microplates at a density of 4100 cells/well and incubated for 30 minutes at 37° C. in the presence of buffer (basal control), test compound or reference agonist. For stimulated control measurement, separate assay wells contained 1 μM 5-HT. Following incubation, the cells were lysed and the fluorescence acceptor (fluorophen D2-labeled IP1) and fluorescence donor (anti-IP1 antibody labeled with europium cryptate) were added. After 60 minutes at room temperature, the fluorescence transfer was measured at lambda(Ex) 337 nm and lambda(Em) 620 and 665 nm using a microplate reader (Rubystar, BMG). The IP1 concentration was determined by dividing the signal measured at 665 nm by that measured at 620 nm (ratio). The results were expressed as a percent of the control response to 1 μM 5-HT. The standard reference agonist was 5-HT, which was tested in each experiment at several concentrations to generate a concentration-response curve from which its EC50 value is calculated as described above for dopamine functional assays.

[6] = WO 2010/097092; cited from earlier work
rat hepatocytes = conditions: WO 2010/097092; cited from earlier work
human hepatocytes [7] = conditions: WO 2010/097092; cited from earlier work
[8] = Liu et al.; cited from earlier work
male CD rats = test: Rat locomotor activity (hyperactivity) assay, open field; format: in vivo; conditions: for end of locomotor effect post administration: recording until 415-minute time point
Experimental: In total, 206 male CD rats (Charles River, Germany) weighing 200-250 grams (165-190 grams upon arrival) were used in the study. Animals were housed at a standard temperature (22±1° C.) and in a light-controlled environment (lights on from 7 am to 8 pm) with ad libitum access to food and water. The experiment described below was performed in accordance with the standard operating procedures of Charles River Discovery Research Services Finland Ltd. and in accordance with the national Animal Experiment Board of Finland (Elainkoelautakunta, ELLA) authority on animal testing.
The test device is a square Plexiglass-arena (measuring 40×40×40 cm), in which the movement paths of the rats are recorded by an activity monitor (Med. Associates Inc.). Before the test period is initiated, rats are habituated to their test cage for 60 minutes. Upon completion of habituation, animals were treated with either compound or vehicle and placed back into the open field apparatus. The main test parameter measured is ambulatory distance (recorded in 5 minute segments). Overall time of measurement after receiving initial treatment was 360 minutes. Total follow up period in the study was 420 minutes, including 60 minutes of habituation.
Blood samples were taken and processed and analyzed as described under PK experiments in rats in Example 3.

[9] = In vitro dopaminergic activity (data not shown)
[10] = Liu et al., Bioorganic Med. Chem. (2008); cited from earlier work
[11] = in man after oral dosing; cited from earlier work
[12] = intravenous (IV), PD patients; cited from earlier work
[13] = (Id-ia) 10 to 300 μg/kg p.o., apomorphine 3 mg/kg s.c., pramipexole 0.3 mg/kg s.c.
[14] = (Id-ia) 10 to 300 μg/kg p.o., apomorphine 3 mg/kg s.c.

Question: Which “Observed metabolite, Incubation in human plasma” value ([1]; 1 μM test compound, 37° C., 0-6 hr, nd: not detected) does the source give for `CCCN1CCC[C@@H]2Cc3c(ccc(O[C@@H]4O[C@H](C(=O)O)[C@@H](O)[C@H](O)[C@H]4O)c3O)C[C@H]21` [(Id-ib), (2S,3S,4S,5R,6S)-3,4,5-tri hydroxy-6-(((4aR,10aR)-6-hydroxy-1-propyl-1,2,3,4,4a,5,10,10a-octahydrobenzo[g]quinolin-7-yl)oxy)tetrahydro-2H-pyran-2-carboxylic acid] here?
Answer: Compound (I)

Question: What about the “Observed metabolite, Incubation in human hepatocytes” value (human hepatocytes [2]) of the same compound?
Answer: Compound (I)

Question: What about the “Observed metabolite, In vivo PK study after oral dosing (rats)” value [3] of the same compound?
Answer: Compound (I)

Question: What about the inhibition at 10 µM (human 5-HT2B receptor [4]) of the same compound?
Answer: -39%

Question: For `CCCN1CCC[C@@H]2Cc3c(ccc4c3OCO4)C[C@H]21` [(Ib), (6aR,10aR)-7-propyl-6,6a,7,8,9,10,10a,11-octahydro-[1,3]dioxolo[4′,5′:5,6]benzo[1,2-g]quinoline], which “plasma concentrations of compound (I) after oral dosing (in words)” value [3] is on record?
Answer: early and high peak plasma concentrations

Question: What about the “5-HT2B receptor agonism (in words)” value (human 5-HT2B receptor [5]) of the same compound?
Answer: agonist

Question: What about the “in vivo pharmacology in animal models relevant for Parkinson's Disease” value [6] of the same compound?
Answer: effective

Question: And the “conversion to compound (I) in rat hepatocytes” value (rat hepatocytes)?
Answer: demonstrated

Question: What about the “conversion to compound (I) in human hepatocytes” value (human hepatocytes [7]) of the same compound?
Answer: demonstrated

Question: For `CCCN1CCC[C@@H]2CC3=C(CCCC3=O)C[C@H]21` [(Ia), reference compound], which “plasma concentrations of compound (I) after oral dosing (in words)” value [3] is on record?
Answer: early and high peak plasma concentrations

Question: What about the EC50 (human 5-HT2B receptor [5]; IP1 production, transfected CHO cells) of the same compound?
Answer: > 6 µM

Question: And the activity at 30 µM (human 5-HT2B receptor [5]; read-out: 5-HT2B agonist activity, percent of control response)?
Answer: 58%

Question: What about the “in vivo pharmacology in animal models relevant for Parkinson's Disease” value [6] of the same compound?
Answer: effective

Question: And the “conversion to compound (I) in rats” value [8]?
Answer: converted to the active compound (I)

Question: For `CCCN1CCC[C@@H]2Cc3c(ccc(O)c3O[C@@H]3O[C@H](C(=O)O)[C@@H](O)[C@H](O)[C@H]3O)C[C@H]21` [(Id-ia), (2S,3S,4S,5R,6S)-3,4,5-trihydroxy-6-(((4aR,10aR)-7-hydroxy-1-propyl-1,2,3,4,4a,5,10,10a-octahydrobenzo[g]quinolin-6-yl)oxy)tetrahydro-2H-pyran-2-carboxylic acid], which “Observed metabolite, In vivo PK study after oral dosing (rats)” value [3] is on record?
Answer: Compound (I)

Question: What about the “effect on locomotor activity” value (male CD rats; [13]) of the same compound?
Answer: dopaminergic effect; also recorded: increases locomotor activity

Question: What about the “start of locomotor effect post-administration” value (male CD rats; [13]) of the same compound?
Answer: ~2 h

Question: What about the “end of locomotor effect post administration” value (male CD rats; [14]) of the same compound?
Answer: lasting until the end of recording

Question: What about the total distance travelled (male CD rats; relative to vehicle, FIG. 4) of the same compound?
Answer: significantly increased activity

Question: What about the “in vitro dopaminergic activity” value [9] of the same compound?
Answer: no in vitro dopaminergic activity

Question: For `CCCN[C@H]1CCc2nc(N)sc2C1` [Pramipexole, pramipexole, reference compound], which “effect on locomotor activity” value (male CD rats; [13]) is on record?
Answer: increase in activity

Question: What does the source list for `CCCN1CCC[C@@H]2Cc3c(ccc(O)c3O)C[C@H]21` [(I), (4aR,10aR)-1-Propyl-1,2,3,4,4a,5,10,10a-octahydro-benzo[g]quinoline-6,7-diol]?
Answer: half-life in the plasma assay ([1]; human plasma): short half-life; oral bioavailability (in words) [10]: low oral bioavailability; in vivo pharmacology in animal models relevant for Parkinson's Disease [6]: effective

Question: Which oral bioavailability [11] does the source give for `CCCc1cc2c(s1)CN[C@@H]1CCc3cc(OC(C)=O)c(OC(C)=O)cc3[C@@H]21` [Adrogolide, adrogolide] here?
Answer: ~4%

Question: And the antiparkinson efficacy [12]?
Answer: comparable to that of L-DOPA

Question: Which “end of locomotor effect post administration” value (male CD rats; [14]) does the source give for `CN1CCc2cccc3c2[C@H]1Cc1ccc(O)c(O)c1-3` [apomorphine, reference compound] here?
Answer: 1.5 h
